In paper PMC11520136, “Design, synthesis, and biological investigations of new pyrazole derivatives as VEGFR2/CDK-2 inhibitors targeting liver cancer” (BMC Chemistry, 2024):
“Also recorded” adds a separate entry of the source. Blank lines part the entries; values can stand above or below the molecule they belong to.

Experiments:
HepG2 cells [1] = assay: MTT cytotoxicity assay against HepG2; assay type: cell-based; conditions: mean ± SD, n = 3
Experimental: (§1) The cell lines were supplemented with 10% fetal bovine serum (Sigma-Aldrich, MO, USA) and 1% penicillin–streptomycin. Compounds were added to the cells on the second day at doses of “0, 0.01, 0.1, 1, 10, and 100 μM”. Cell viability was assessed after 48 h using the MTT solution (Promega, USA).

THLE2 cells = assay: MTT cytotoxicity assay against THLE2; assay type: cell-based; conditions: Homo sapiens, THLE-2, 48 h, normal liver cells, mean ± SD, n = 3
Experimental: as §1

HepG2 liver cancer cells = test system: HepG2 liver cancer cells; parameters: method as in PMID 32559576, PMID 37234266, doi:10.1016/j.molstruc.2023.135765; conditions: Fig. 1; read-out: IC50 against HepG2 liver cancer cells; cited from earlier work
VEGFR2 kinase = target: T1, VEGFR2 kinase (Homo sapiens, UniProt P35968); assay: VEGFR2 (KDR) kinase assay kit; assay type: biochemical; conditions: for IC50: average of three independent replicates
T1 construct: purchased BPS Bioscience 40,325

CDK-2 kinase = target: T2, CDK-2 kinase (Homo sapiens, UniProt P24941); assay: CDK-2 luminescence kinase assay kit; assay type: biochemical; conditions: for IC50: average of three independent replicates
T2 construct: purchased Promega (so in the source) 79,599

HepG2 cells [2] = assay: Annexin V/PI staining flow cytometry (apoptosis/necrosis); assay type: cell-based; parameters: Apoptosis Total / Apoptosis Early / Apoptosis Late: unit not given here; conditions: for total apoptosis (overall apoptotic cell death): untreated control 0.95%; for Apoptosis Late: Cont.HepG2 0.23; for Apoptosis Early: Cont.HepG2 0.72; for Apoptosis Total: Cont.HepG2 2.47
Experimental: (§2) HepG2 cells (3–5 105 cells/well) were cultured onto 6-well culture plates and incubated overnight. […] The cells and medium supernatants were then washed with ice-cold PBS. After that, […] of annexin binding buffer solution was added to the cell suspension "25 mM CaCl2, 1.4 M NaCl, and 0.1 M Hepes/NaOH, pH 7.4″ and incubation with “Annexin V-FITC solution (1:100) and propidium iodide (PI)” at a concentration equals 10 µg/mL in the dark for 30 min. The Cytoflex FACS system was then used to acquire the stained cells. cytExpert was used for data analysis.

HepG2 cells [3] = assay: DNA content flow cytometry cell cycle analysis; assay type: cell-based; conditions: HepG2, IC50 values, 48 h; for DNA content %G2/M: control 20.6; for DNA content %S: control 37.59; for DNA content %G0-G1: control 41.81
Experimental: as §2
Kit used : ab139418_Propidium Iodide Flow Cytometry Kit/BD

[4] = HepG2, at the IC50 values, 48 h
[5] = HepG2, at the IC50 values, 48 h, untreated control 1.52%
[6] = supplement lab report, HepG2, Cont.HepG2 1.52

T1 sequence (P35968 20-1356): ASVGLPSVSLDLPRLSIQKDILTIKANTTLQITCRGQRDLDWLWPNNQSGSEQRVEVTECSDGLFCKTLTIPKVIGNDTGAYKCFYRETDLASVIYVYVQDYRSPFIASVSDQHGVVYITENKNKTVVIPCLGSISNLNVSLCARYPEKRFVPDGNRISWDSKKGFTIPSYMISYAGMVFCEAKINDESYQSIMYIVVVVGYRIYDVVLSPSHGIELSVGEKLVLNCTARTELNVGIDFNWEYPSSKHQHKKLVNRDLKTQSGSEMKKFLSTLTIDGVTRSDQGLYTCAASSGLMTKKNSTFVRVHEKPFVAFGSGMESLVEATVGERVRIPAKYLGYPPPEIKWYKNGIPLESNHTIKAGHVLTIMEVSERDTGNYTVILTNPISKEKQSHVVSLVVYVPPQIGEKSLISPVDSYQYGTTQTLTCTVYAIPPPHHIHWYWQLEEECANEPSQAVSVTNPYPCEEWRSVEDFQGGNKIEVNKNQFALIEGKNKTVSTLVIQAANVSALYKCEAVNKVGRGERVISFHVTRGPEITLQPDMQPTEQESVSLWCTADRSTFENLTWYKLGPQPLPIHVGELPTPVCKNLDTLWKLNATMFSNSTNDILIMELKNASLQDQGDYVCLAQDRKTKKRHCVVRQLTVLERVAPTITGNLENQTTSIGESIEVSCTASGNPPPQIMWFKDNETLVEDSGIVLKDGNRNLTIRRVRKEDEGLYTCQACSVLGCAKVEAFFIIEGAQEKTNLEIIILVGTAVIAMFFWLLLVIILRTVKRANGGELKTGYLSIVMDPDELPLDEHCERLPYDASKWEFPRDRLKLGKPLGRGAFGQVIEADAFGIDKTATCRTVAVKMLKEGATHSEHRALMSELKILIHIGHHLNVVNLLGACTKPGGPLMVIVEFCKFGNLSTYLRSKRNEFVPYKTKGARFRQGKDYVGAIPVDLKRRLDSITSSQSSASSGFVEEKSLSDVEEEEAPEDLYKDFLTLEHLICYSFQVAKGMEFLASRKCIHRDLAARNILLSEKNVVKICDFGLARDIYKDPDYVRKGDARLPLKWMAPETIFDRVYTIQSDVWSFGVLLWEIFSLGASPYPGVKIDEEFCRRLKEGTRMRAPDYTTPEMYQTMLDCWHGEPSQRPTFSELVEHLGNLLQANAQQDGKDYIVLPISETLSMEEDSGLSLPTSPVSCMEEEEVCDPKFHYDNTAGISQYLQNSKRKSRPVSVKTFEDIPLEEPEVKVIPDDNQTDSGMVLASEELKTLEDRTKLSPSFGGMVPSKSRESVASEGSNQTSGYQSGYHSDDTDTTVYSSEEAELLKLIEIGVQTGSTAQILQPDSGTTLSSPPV

SMILES: CC1=NN(C(c2ccccc2)N2CCCCC2)C(=O)C1N=Nc1ccccc1[N+](=O)[O-] (stereo not drawn) [Compound 4b, 5-Methyl-4-((2-nitrophenyl)diazenyl)-2-(phenyl(piperidin-1-yl)methyl)-2,4-dihydro-3H-pyrazol-3-one]
IC50 (HepG2 cells [1]; 48 h): 9.34 ± 0.52 µM
IC50 (HepG2 cells [1]; Homo sapiens, HepG2, 48 h): 9.33 µM
IC50 (THLE2 cells): 72.4 ± 2.15 µM

SMILES: COc1ccc(OC)c(NC(=O)c2cc(-c3c[nH]c4ccccc34)n[nH]2)c1 [SI]
IC50 (HepG2 liver cancer cells): 0.6 µM

inhibition at 10 µM (VEGFR2 kinase): 93.2 ± 2.9%
IC50 (VEGFR2 kinase): 0.2 ± 0.001 µM
inhibition at 10 µM (CDK-2 kinase): 88.7 ± 2.6%
IC50 (CDK-2 kinase): 0.458 ± 0.017 µM
SMILES: Cc1nn(C(Nc2c(C)n(C)n(-c3ccccc3)c2=O)c2ccccc2)c(O)c1N=Nc1ccccc1[N+](=O)[O-] (stereo not drawn) [Compound 6b, 4-(((5-Hydroxy-3-methyl-4-((2-nitrophenyl)diazenyl)-1H-pyrazol-1-yl)(phenyl)methyl)amino)-1,5-dimethyl-2-phenyl-1,2-dihydro-3H-pyrazol-3-one]
IC50 (HepG2 cells [1]; Homo sapiens, HepG2, 48 h): 2.52 ± 0.12 µM
IC50 (THLE2 cells): 60.2 ± 2.54 µM
total apoptosis (overall apoptotic cell death) (HepG2 cells [2]; [4]): 42.9%
necrosis (HepG2 cells [2]; [5]): 7.54%
Apoptosis Late (HepG2 cells [2]; supplement lab report, HepG2): 14.48
Apoptosis Early (HepG2 cells [2]; supplement lab report, HepG2): 29.17
necrosis (HepG2 cells [2]; [6]): 7.54
Apoptosis Total (HepG2 cells [2]; supplement lab report, HepG2): 51.19
cell cycle phase of growth arrest (Comment) (HepG2 cells [3]): S-phases; also recorded: S phase
DNA content %G2/M (HepG2 cells [3]): 12.49%
DNA content %S (HepG2 cells [3]): 41.33%
DNA content %G0-G1 (HepG2 cells [3]): 46.18%
cell cycle phase of growth arrest (Comment) (HepG2 cells [3]; listed as s31): cell growth arrest@ G1/S

SMILES: Cc1nn(C(Nc2c(C)n(C)n(-c3ccccc3)c2=O)c2ccccc2)c(O)c1N=Nc1ccccc1 (stereo not drawn) [Compound 6a, 4-(((5-Hydroxy-3-methyl-4-(phenyldiazenyl)-1H-pyrazol-1-yl)(phenyl)methyl)amino)-1,5-dimethyl-2-phenyl-1,2-dihydro-3H-pyrazol-3-one]
IC50 (THLE2 cells): 75.3 ± 3.3 µM

SMILES: CC1=NN(C(c2ccccc2)N2CCOCC2)C(=O)C1N=Nc1ccc(Cl)cc1 (stereo not drawn) [Compound 3c, 4-((4-Chlorophenyl)diazenyl)-5-methyl-2-(morpholino(phenyl)methyl)-2,4-dihydro-3H-pyrazol-3-one]
IC50 (THLE2 cells): 34.5 ± 2.1 µM

SMILES: CC1=NN(C(c2ccccc2)N2CCOCC2)C(=O)C1N=Nc1ccccc1 (stereo not drawn) [Compound 3a, 5-Methyl-2-(morpholino(phenyl)methyl)-4-(phenyldiazenyl)-2,4-dihydro-3H-pyrazol-3-one]
IC50 (HepG2 cells [1]; Homo sapiens, HepG2, 48 h): 33.9 ± 1.89 µM
IC50 (THLE2 cells): 41.2 ± 1.19 µM

inhibition at 10 µM (VEGFR2 kinase): 91.7 ± 3.1%
IC50 (VEGFR2 kinase): 0.267 ± 0.001 µM
inhibition at 10 µM (CDK-2 kinase): 91 ± 2.1%
IC50 (CDK-2 kinase): 0.311 ± 0.011 µM
SMILES: Cc1nn(C(Nc2ccccc2)c2ccccc2)c(O)c1N=Nc1ccccc1 (stereo not drawn) [Compound 5a, 3-Methyl-1-(phenyl(phenylamino)methyl)-4-(phenyldiazenyl)-1H-pyrazol-5-ol]
IC50 (HepG2 cells [1]; Homo sapiens, HepG2, 48 h): 3.46 ± 0.16 µM
IC50 (THLE2 cells): 48.7 ± 2.05 µM
total apoptosis (overall apoptotic cell death) (HepG2 cells [2]; [4]): 38.32%
necrosis (HepG2 cells [2]; [5]): 4.63%
Apoptosis Late (HepG2 cells [2]; supplement lab report, HepG2): 11.55
Apoptosis Early (HepG2 cells [2]; supplement lab report, HepG2): 26.77
necrosis (HepG2 cells [2]; [6]): 4.63
Apoptosis Total (HepG2 cells [2]; supplement lab report, HepG2): 42.95
DNA content %G2/M (HepG2 cells [3]): 15.61%
DNA content %S (HepG2 cells [3]): 35.21%
DNA content %G0-G1 (HepG2 cells [3]): 49.18%
cell cycle phase of growth arrest (Comment) (HepG2 cells [3]; listed as s20): cell growth arrest@ G1

SMILES: COc1cccc2c1C(=O)c1c(O)c3c(c(O)c1C2=O)C[C@@](O)(C(=O)CO)C[C@@H]3O[C@H]1C[C@H](N)[C@H](O)[C@H](C)O1 [doxorubicin, reference compound]
IC50 (HepG2 cells [1]; Homo sapiens, HepG2, 48 h): 2.05 µM

inhibition at 10 µM (VEGFR2 kinase): 90.5 ± 2.1%
IC50 (VEGFR2 kinase): 0.55 ± 0.006 µM
inhibition at 10 µM (CDK-2 kinase): 90.9 ± 1.9%
IC50 (CDK-2 kinase): 0.205 ± 0.011 µM
SMILES: CC1=NN(C(c2ccccc2)N2CCCCC2)C(=O)C1N=Nc1ccccc1 (stereo not drawn) [Compound 4a, 5-Methyl-2-(phenyl(piperidin-1-yl)methyl)-4-(phenyldiazenyl)-2,4-dihydro-3H -pyrazol-3-one]
IC50 (HepG2 cells [1]; 48 h): 4.43 ± 0.25 µM
IC50 (HepG2 cells [1]; Homo sapiens, HepG2, 48 h): 4.4 µM
IC50 (THLE2 cells): 27.3 ± 1.15 µM

SMILES: CNC(=O)c1cc(Oc2ccc(NC(=O)Nc3ccc(Cl)c(C(F)(F)F)c3)cc2)ccn1 [Sorafenib, reference compound]
IC50 (THLE2 cells): 17 ± 0.72 µM

SMILES: CC1=NN(C(c2ccccc2)N2CCOCC2)C(=O)C1N=Nc1ccccc1[N+](=O)[O-] (stereo not drawn) [Compound 3b, 5-Methyl-2-(morpholino(phenyl)methyl)-4-((2-nitrophenyl)diazenyl)-2,4-dihydro-3H-pyrazol-3-one]
IC50 (HepG2 cells [1]; Homo sapiens, HepG2, 48 h): 55.5 ± 3.1 µM
IC50 (THLE2 cells): 47.2 ± 1.85 µM

SMILES: Cc1nn(C(Nc2ccccc2[N+](=O)[O-])c2ccccc2)c(O)c1N=Nc1ccccc1 (stereo not drawn) [Compound 5b, 3-Methyl-1-((2-nitrophenylamino)(phenyl)methyl)-4-(phenyldiazenyl)-1H-pyrazol-5-ol]
IC50 (HepG2 cells [1]; 48 h): 17.3 ± 0.8 µM
IC50 (HepG2 cells [1]; Homo sapiens, HepG2, 48 h): 17.1 µM
IC50 (THLE2 cells): 65.2 ± 2.3 µM

SMILES: CC1=NN(C(c2ccccc2)N2CCCCC2)C(=O)C1N=Nc1ccc(Cl)cc1 (stereo not drawn) [Compound 4c, 4-((4-Chlorophenyl)diazenyl)-5-methyl-2-(phenyl(piperidin-1-yl)methyl)-2,4-dihydro-3H-pyrazol-3-one]
IC50 (HepG2 cells [1]; Homo sapiens, HepG2, 48 h): 25.2 ± 1.41 µM
IC50 (THLE2 cells): 34.7 ± 1.05 µM
